Reference: ChEMBL document CHEMBL4373717, “Coumarin-containing hybrids and their anticancer activities” (Eur J Med Chem, 2019)
Values after ≈ are worked out from the molar mass of the structure shown.

Experiments:
HeLa [1] = assay: Antiproliferative activity against human HeLa cells by MTT assay; type: functional, cell-based
[2] = Cytotoxicity against human MCF7/DX cells assessed as reduction in cell viability by SRB assay; type: functional, cell-based
MCF7 [3] = assay: Cytotoxicity against human MCF7 cells assessed as reduction in cell viability by SRB assay; type: functional, cell-based
HeLa [4] = assay: Cytotoxicity against human HeLa cells assessed as reduction in cell viability by SRB assay; type: functional, cell-based
A549 [5] = assay: Cytotoxicity against human A549 cells assessed as reduction in cell viability by SRB assay; type: functional, cell-based
HepG2 [6] = assay: Cytotoxicity against human HepG2 cells assessed as reduction in cell viability by SRB assay; type: functional, cell-based
DU-145 = assay: Cytotoxicity against human DU145 cells assessed as reduction in cell viability by SRB assay; type: functional, cell-based
SK-OV-3 = assay: Cytotoxicity against human SKOV3 cells assessed as reduction in cell viability by SRB assay; type: functional, cell-based
MDA-MB-231 = assay: Anticancer activity against human MDA-MB-231 cells by MTT assay; type: functional, cell-based
K562 = assay: Anticancer activity against human K562 cells by MTT assay; type: functional, cell-based
HeLa [7] = assay: Anticancer activity against human HeLa cells by MTT assay; type: functional, cell-based
A549 [8] = assay: Anticancer activity against human A549 cells by MTT assay; type: functional, cell-based
BHK-21 = assay: Cytotoxicity against BHK21 cells assessed as reduction in cell viability after 48 hrs by SRB assay; type: cell-based; conditions: Mesocricetus auratus, BHK-21, 48 h
NCI-H157 = assay: Cytotoxicity against human NCI-H157 cells assessed as reduction in cell viability after 48 hrs by SRB assay; type: functional, cell-based; conditions: NCI-H157, 48 h
DLD-1 = assay: Cytotoxicity against human DLD1 cells assessed as reduction in cell viability; type: functional, cell-based
HepG2 [9] = assay: Cytotoxicity against human HepG2 cells assessed as reduction in cell viability; type: functional, cell-based
MCF7 [10] = assay: Cytotoxicity against human MCF7 cells assessed as reduction in cell viability by MTT assay; type: functional, cell-based; conditions: Homo sapiens, MCF7

| Compound | IC50 [2] | IC50 (MCF7 [3]) | IC50 (HeLa [4]) | IC50 (A549 [5]) | IC50 (HepG2 [6]) | IC50 (DU-145) | IC50 (SK-OV-3) | further results |
| --- | --- | --- | --- | --- | --- | --- | --- | --- |
| COC(=O)c1sc(N/N=C(\C)c2cc3ccccc3oc2=O)nc1C |  |  |  |  |  |  |  | IC50 (HeLa [1]): 0.0091 to 0.569 µM |
| CO/N=C1\C(=O)N(CCOCCOc2ccc3c(C)cc(=O)oc3c2)c2ccc(F)cc21 | 10.3 to 50 µM | 10.3 to 50 µM | 10.3 to 50 µM | 10.3 to 50 µM | 10.3 to 50 µM | 10.3 to 50 µM | 10.3 to 50 µM |  |
| Cc1cc(=O)oc2cc(OCCOCCN3C(=O)/C(=N\O)c4ccccc43)ccc12 | 10.3 to 50 µM | 10.3 to 50 µM | 10.3 to 50 µM | 10.3 to 50 µM | 10.3 to 50 µM | 10.3 to 50 µM | 10.3 to 50 µM |  |
| COC(=O)c1sc(N/N=C(\C)c2cc3cc(Br)ccc3oc2=O)nc1C |  |  |  |  |  |  |  | IC50 (HeLa [1]): 0.0091 to 0.569 µM |
| CO/N=C1\C(=O)N(CCOCCOc2ccc3c(C)cc(=O)oc3c2)c2ccc(Cl)cc21 | 10.3 to 50 µM | 10.3 to 50 µM | 10.3 to 50 µM | 10.3 to 50 µM | 10.3 to 50 µM | 10.3 to 50 µM | 10.3 to 50 µM |  |
| Cc1nn(-c2ccc(Br)cc2)c(=O)n1-n1c(-c2cc3ccccc3oc2=O)cs/c1=N\c1ccccc1 |  |  |  |  |  |  |  | IC50 (MDA-MB-231): 0.16 to 1.12 µg/mL (≈ 0.28 to 1.96 µM); IC50 (K562): 0.16 to 1.12 µg/mL (≈ 0.28 to 1.96 µM); IC50 (HeLa [7]): 0.16 to 1.12 µg/mL (≈ 0.28 to 1.96 µM); IC50 (A549 [8]): 0.16 to 1.12 µg/mL (≈ 0.28 to 1.96 µM) |
| O=c1oc2ccccc2cc1-c1nnc2n1N=C(c1ccc(Br)cc1)CS2 |  |  |  |  |  |  |  | IC50 (BHK-21): 1.01 to 5.72 µM; IC50 (NCI-H157): 1.01 to 5.72 µM |
| C/C(=N\Nc1ncc(C(=O)c2cc3ccccc3oc2=O)s1)c1ccc(C)cc1 |  |  |  |  |  |  |  | EC50 (DLD-1): 3.7 to 9.54 µg/mL (≈ 9.17 to 23.6 µM); EC50 (HepG2 [9]): 3.7 to 9.54 µg/mL (≈ 9.17 to 23.6 µM) |
| Cc1cc(=O)oc2cc(OCCOCCN3C(=O)C(=O)c4cc(F)ccc43)ccc12 | 10.3 to 50 µM | 10.3 to 50 µM | 10.3 to 50 µM | 10.3 to 50 µM | 10.3 to 50 µM | 10.3 to 50 µM | 10.3 to 50 µM |  |
| C/C(=N\Nc1ncc(C(=O)c2cc3ccccc3oc2=O)s1)c1ccccc1 |  |  |  |  |  |  |  | EC50 (DLD-1): 3.7 to 9.54 µg/mL (≈ 9.5 to 24.5 µM); EC50 (HepG2 [9]): 3.7 to 9.54 µg/mL (≈ 9.5 to 24.5 µM) |
| Cc1cc(=O)oc2cc(/N=N/c3ccccc3)c(O)c(/N=N/c3ccccc3)c12 |  |  |  |  |  |  |  | IC50 (MCF7 [10]): 1.87 µg/mL (≈ 4.86 µM) |
| C=CCNc1ncc(C(=O)c2cc3ccccc3oc2=O)s1 |  |  |  |  |  |  |  | IC50 (DLD-1): 5.66 to 100 µg/mL (≈ 18.1 to 320 µM); IC50 (HepG2 [9]): 5.66 to 100 µg/mL (≈ 18.1 to 320 µM) |
| CC(=O)c1ccc(C2=Nn3c(nnc3-c3cc4ccccc4oc3=O)SC2)cc1 |  |  |  |  |  |  |  | IC50 (BHK-21): 1.01 to 5.72 µM; IC50 (NCI-H157): 1.01 to 5.72 µM |
| CO/N=C1\C(=O)N(CCOCCOc2ccc3c(C)cc(=O)oc3c2)c2ccccc21 | 10.3 to 50 µM | 10.3 to 50 µM | 10.3 to 50 µM | 10.3 to 50 µM | 10.3 to 50 µM | 10.3 to 50 µM | 10.3 to 50 µM |  |
| CO/N=C1\C(=O)N(CCOCCOc2ccc3c(C)cc(=O)oc3c2)c2ccc(C)cc21 | 10.3 to 50 µM | 10.3 to 50 µM | 10.3 to 50 µM | 10.3 to 50 µM | 10.3 to 50 µM | 10.3 to 50 µM | 10.3 to 50 µM |  |
| Cc1nn(-c2ccc(Br)cc2)c(=O)n1-n1c(-c2cc3ccccc3oc2=O)cs/c1=N\c1ccc(Cl)cc1 |  |  |  |  |  |  |  | IC50 (MDA-MB-231): 0.16 to 1.12 µg/mL (≈ 0.264 to 1.85 µM); IC50 (K562): 0.16 to 1.12 µg/mL (≈ 0.264 to 1.85 µM); IC50 (HeLa [7]): 0.16 to 1.12 µg/mL (≈ 0.264 to 1.85 µM); IC50 (A549 [8]): 0.16 to 1.12 µg/mL (≈ 0.264 to 1.85 µM) |
| Cc1ccc2c(c1)/C(=N/O)C(=O)N2CCOCCOc1ccc2c(C)cc(=O)oc2c1 | 10.3 to 50 µM | 10.3 to 50 µM | 10.3 to 50 µM | 10.3 to 50 µM | 10.3 to 50 µM | 10.3 to 50 µM | 10.3 to 50 µM |  |
| Cc1cc(=O)oc2cc(OCCOCCN3C(=O)C(=O)c4cc(Cl)ccc43)ccc12 | 10.3 to 50 µM | 10.3 to 50 µM | 10.3 to 50 µM | 10.3 to 50 µM | 10.3 to 50 µM | 10.3 to 50 µM | 10.3 to 50 µM |  |
| O=C(c1cnc(Nc2ccccc2)s1)c1cc2ccccc2oc1=O |  |  |  |  |  |  |  | IC50 (DLD-1): 5.66 to 100 µg/mL (≈ 16.2 to 287 µM); IC50 (HepG2 [9]): 5.66 to 100 µg/mL (≈ 16.2 to 287 µM) |
| Cc1ccc(-n2nc(C)n(-n3c(-c4cc5ccccc5oc4=O)cs/c3=N\c3ccc(Cl)cc3)c2=O)cc1 |  |  |  |  |  |  |  | IC50 (MDA-MB-231): 0.16 to 1.12 µg/mL (≈ 0.295 to 2.07 µM); IC50 (K562): 0.16 to 1.12 µg/mL (≈ 0.295 to 2.07 µM); IC50 (HeLa [7]): 0.16 to 1.12 µg/mL (≈ 0.295 to 2.07 µM); IC50 (A549 [8]): 0.16 to 1.12 µg/mL (≈ 0.295 to 2.07 µM) |
| COc1cc([C@@H]2c3cc4c(cc3[C@@H](O[C@@H]3O[C@@H]5CO[C@@H](C)O[C@H]5[C@H](O)[C@H]3O)[C@H]3COC(=O)[C@H]23)OCO4)cc(OC)c1O [ETOPOSIDE] | > 50 µM |  | > 50 µM | > 50 µM |  |  |  |  |
| CC[C@]1(O)C[C@H]2CN(CCc3c([nH]c4ccccc34)[C@@](C(=O)OC)(c3cc4c(cc3OC)N(C=O)[C@H]3[C@@](O)(C(=O)OC)[C@H](OC(C)=O)[C@]5(CC)C=CCN6CC[C@]43[C@@H]65)C2)C1 [VINCRISTINE] |  |  |  |  |  |  |  | IC50 (BHK-21): 1.08 µM; IC50 (NCI-H157): 1.03 µM |
